Data on eleven compounds can be found in PubChem BioAssay (NCI).

Test systems include EKVX NSCLC; HOP-62 NSCLC; SW-620 colon; MDA-MB-231 breast; HCC-2998 colon; T-47D breast; TK-10 renal; CCRF-CEM leukemia; K-562 leukemia; LOX IMVI melanoma; 786-0 renal; SNB-19 CNS; OVCAR-5 ovarian; M14 melanoma; MCF7 breast; MDA-N; MALME-3M melanoma; HL-60(TB) leukemia; RXF 393 renal; MDA-MB-435.
Test in all cases: inhibition of tumour cell growth, NCI panel, 48 h

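48-hour exposure; five concentrations; linearly interpolated endpoints. TGI: total growth inhibition.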

On to `O=C(O)c1cc(N(Cc2ccccc2O)Cc2cc(O)ccc2O)ccc1O`, for which the TGI in the assay with EKVX NSCLC, in the assay on HOP-62 NSCLC, with SW-620 colon, in the assay with MDA-MB-231 breast, in the assay on HCC-2998 colon and in the assay on T-47D breast was above 100 µM throughout. Also, the TGI in the assay on TK-10 renal, in the assay on CCRF-CEM leukemia, in the assay on K-562 leukemia, with LOX IMVI melanoma, with 786-0 renal and with SNB-19 CNS was above 100 µM each time. For the same compound, the TGI in the assay with OVCAR-5 ovarian, in the assay with M14 melanoma, in the assay with MCF7 breast, in the assay with MDA-N, with MALME-3M melanoma and in the assay with HL-60(TB) leukemia was above 100 µM in each case. For the same compound, the TGI in the assay with RXF 393 renal and in the assay on MDA-MB-435 was above 100 µM each time.

Regarding `CC(OCc1ccccc1)C(NC(=O)C1CSSCC(NC(=O)C(Cc2ccccc2)NC(=O)OCc2ccccc2)C(=O)NC(Cc2ccccc2)C(=O)NC(Cc2cn(C=O)c3ccccc23)C(=O)NC(CCCCNC(=O)OCc2ccccc2)C(=O)NC(C(C)OCc2ccccc2)C(=O)N1)C(N)=O` (configuration not stated), the TGI in the assay with EKVX NSCLC is above 100 µM; in the assay with HOP-62 NSCLC, above 100 µM; in the assay with SW-620 colon, above 54.5 µM; with MDA-MB-231 breast, 37.3 µM; with HCC-2998 colon, above 32.5 µM; in the assay with T-47D breast it was above 63.8 µM. Also, the TGI in the assay on TK-10 renal was above 84.8 µM; in the assay on CCRF-CEM leukemia it was above 100 µM; with K-562 leukemia it was above 100 µM; in the assay on LOX IMVI melanoma, 47 µM; in the assay on 786-0 renal, above 86.9 µM; in the assay on SNB-19 CNS, above 100 µM. Further, the TGI in the assay on OVCAR-5 ovarian was above 100 µM; in the assay on M14 melanoma it was above 79.1 µM; in the assay with MCF7 breast it was 41.1 µM; in the assay on MDA-N, above 100 µM; with MALME-3M melanoma, above 90.4 µM; in the assay with HL-60(TB) leukemia, 2.89 µM. The TGI in the assay on RXF 393 renal and in the assay on MDA-MB-435 was above 100 µM throughout.

Regarding `O=c1c2ncn(CCCl)c2n(-c2ccccc2)c(=S)n1-c1ccccc1`, the TGI in the assay on EKVX NSCLC, in the assay with HOP-62 NSCLC, in the assay on SW-620 colon, in the assay with MDA-MB-231 breast, in the assay with HCC-2998 colon and with T-47D breast was above 100 µM each time. The TGI in the assay with TK-10 renal, with CCRF-CEM leukemia, in the assay with K-562 leukemia, in the assay with LOX IMVI melanoma, in the assay on 786-0 renal and in the assay with SNB-19 CNS was above 100 µM each time. Also, the TGI with OVCAR-5 ovarian, in the assay with M14 melanoma, in the assay with MCF7 breast, in the assay on MDA-N, in the assay with MALME-3M melanoma and in the assay on HL-60(TB) leukemia was above 100 µM throughout. Further, the TGI in the assay with RXF 393 renal and in the assay on MDA-MB-435 was above 100 µM in each case.

Consider `FC(F)(F)C1(C(F)(F)F)C2CCC3(CC(F)(F)C(F)(F)S3)C1C2` (configuration not stated), for which the TGI in the assay on EKVX NSCLC is 96.6 µM; in the assay on HOP-62 NSCLC, above 100 µM; in the assay on SW-620 colon, above 100 µM; in the assay on MDA-MB-231 breast it was above 100 µM; in the assay on HCC-2998 colon, above 100 µM; with T-47D breast it was above 100 µM. Also, the TGI with TK-10 renal is above 100 µM; in the assay with CCRF-CEM leukemia, 60.9 µM; with K-562 leukemia, above 100 µM; in the assay with LOX IMVI melanoma it was 47.4 µM; with 786-0 renal, above 100 µM; with SNB-19 CNS, above 100 µM. The TGI is above 100 µM in the assay with OVCAR-5 ovarian; above 100 µM with M14 melanoma; 84.3 µM in the assay on MCF7 breast; above 100 µM in the assay on MDA-N; 95.1 µM in the assay on MALME-3M melanoma; 51.8 µM with HL-60(TB) leukemia. Also, the TGI is 84.3 µM with RXF 393 renal and above 100 µM with MDA-MB-435.

For the compound `COP(=O)(C(/C=C/c1ccccc1)OC(C)=O)[C@@H]1CCCC[C@H]1N(CC(C)(C)C)C(C)=O` (some centres not stated), the TGI in the assay on EKVX NSCLC is 57.8 µM; in the assay on HOP-62 NSCLC, 42.3 µM; with SW-620 colon, 41.2 µM; in the assay on MDA-MB-231 breast it was 31.6 µM; in the assay on HCC-2998 colon, 28.2 µM; in the assay on T-47D breast it was 32.6 µM. Moreover, the TGI in the assay with TK-10 renal was 48.2 µM; in the assay on CCRF-CEM leukemia, 67.2 µM; in the assay on K-562 leukemia, 53 µM; in the assay with LOX IMVI melanoma, 30.3 µM; in the assay on 786-0 renal, 35.8 µM; in the assay with SNB-19 CNS, above 100 µM. Also, the TGI in the assay on OVCAR-5 ovarian is 78.9 µM; in the assay on M14 melanoma, 28.8 µM; in the assay with MCF7 breast, above 100 µM; with MDA-N, 36.7 µM; in the assay with MALME-3M melanoma it was 33.4 µM; with HL-60(TB) leukemia, 41.3 µM. The TGI in the assay with RXF 393 renal came out at 22.1 µM; with MDA-MB-435, 36.2 µM.

On to `COC(=O)CCc1ccc2c(c1)CC1(C2)Cc2ccc3c(c2C1)CCC3` (configuration not stated), for which the TGI with EKVX NSCLC, with HOP-62 NSCLC, with SW-620 colon, in the assay with MDA-MB-231 breast, with HCC-2998 colon and with T-47D breast was above 100 µM each time. Moreover, the TGI with TK-10 renal, with CCRF-CEM leukemia, with K-562 leukemia, in the assay with LOX IMVI melanoma, with 786-0 renal and in the assay on SNB-19 CNS was above 100 µM throughout. Further, the TGI with M14 melanoma, with MCF7 breast, in the assay with MDA-N, in the assay on MALME-3M melanoma, in the assay on HL-60(TB) leukemia and with RXF 393 renal was above 100 µM in each case. Further, the TGI in the assay on MDA-MB-435 was above 100 µM.

For the compound `CC(=O)O/C=C\OC1CCCC1`, the TGI in the assay with EKVX NSCLC, in the assay with HOP-62 NSCLC, with SW-620 colon, with MDA-MB-231 breast, in the assay with HCC-2998 colon and in the assay on T-47D breast was above 100 µM each time. Moreover, the TGI in the assay on TK-10 renal, in the assay with CCRF-CEM leukemia, in the assay on K-562 leukemia, with LOX IMVI melanoma, in the assay on 786-0 renal and in the assay with SNB-19 CNS was above 100 µM each time. For the same compound, the TGI with M14 melanoma, with MCF7 breast, in the assay on MDA-N, with MALME-3M melanoma, in the assay with HL-60(TB) leukemia and with RXF 393 renal was above 100 µM in each case. Also, the TGI in the assay with MDA-MB-435 is above 100 µM.

Turning to `CCOC(=O)CC(N1CC1)N1CC1`, the TGI in the assay on EKVX NSCLC, with HOP-62 NSCLC, in the assay with SW-620 colon, with MDA-MB-231 breast, in the assay on HCC-2998 colon and in the assay on T-47D breast was above 10 µM in each case. Moreover, the TGI in the assay with TK-10 renal, in the assay with CCRF-CEM leukemia, with K-562 leukemia, in the assay on LOX IMVI melanoma, with 786-0 renal and with SNB-19 CNS was above 10 µM in each case. Besides, the TGI in the assay on OVCAR-5 ovarian, with M14 melanoma, in the assay with MCF7 breast, in the assay with MDA-N, in the assay with MALME-3M melanoma and in the assay on HL-60(TB) leukemia was above 10 µM each time. Besides, the TGI with RXF 393 renal and in the assay with MDA-MB-435 was above 10 µM in each case.

Regarding `CC1(C)C(=O)C2(C#N)CCC1C2` (configuration not stated), the TGI with EKVX NSCLC, with HOP-62 NSCLC, with SW-620 colon, with MDA-MB-231 breast, in the assay with HCC-2998 colon and in the assay with T-47D breast was above 100 µM each time. Further, the TGI in the assay with TK-10 renal, in the assay with CCRF-CEM leukemia, with K-562 leukemia, with LOX IMVI melanoma, in the assay on 786-0 renal and with SNB-19 CNS was above 100 µM in each case. Besides, the TGI in the assay on OVCAR-5 ovarian, in the assay on M14 melanoma, in the assay with MCF7 breast, in the assay on MDA-N, in the assay with MALME-3M melanoma and in the assay on HL-60(TB) leukemia was above 100 µM in each case. For the same compound, the TGI in the assay with RXF 393 renal and with MDA-MB-435 was above 100 µM each time.

For `CN(C)/C=N/S(=O)(=O)c1nn2c(C=O)c(-c3ccc([N+](=O)[O-])cc3)nc2s1`, the TGI with EKVX NSCLC is 58.7 µM; in the assay on HOP-62 NSCLC it was above 81.9 µM; in the assay on SW-620 colon, above 34 µM; in the assay on MDA-MB-231 breast, above 81.5 µM; in the assay with HCC-2998 colon, above 43.4 µM; with T-47D breast it was above 45.4 µM. Moreover, the TGI was 21.6 µM in the assay on TK-10 renal; 19.2 µM in the assay with CCRF-CEM leukemia; above 27.3 µM in the assay on K-562 leukemia; 27 µM in the assay with LOX IMVI melanoma; 9.03 µM in the assay on 786-0 renal; above 100 µM in the assay with SNB-19 CNS. Besides, the TGI is above 79.6 µM in the assay with OVCAR-5 ovarian; above 32.4 µM in the assay with M14 melanoma; above 42 µM in the assay on MCF7 breast; 17 µM in the assay with MDA-N; 8.72 µM with MALME-3M melanoma; 3.85 µM in the assay with HL-60(TB) leukemia. Moreover, the results for the TGI in the assay with RXF 393 renal and in the assay on MDA-MB-435 were above 67 µM and 50.4 µM, respectively.

Take `O=[N+]([O-])c1ccc(N2N=C(c3ccc4ccccc4c3O)CC2c2ccc(Cl)cc2Cl)c([N+](=O)[O-])c1` (configuration not stated): the TGI in the assay on EKVX NSCLC, in the assay with HOP-62 NSCLC, in the assay on SW-620 colon, with MDA-MB-231 breast, in the assay with HCC-2998 colon and with T-47D breast was above 100 µM each time. Further, the TGI in the assay on TK-10 renal is above 100 µM; in the assay on CCRF-CEM leukemia, 35.5 µM; in the assay on K-562 leukemia, 35.5 µM; in the assay on LOX IMVI melanoma, above 100 µM; in the assay on 786-0 renal, above 100 µM; in the assay with SNB-19 CNS, above 100 µM. For the same compound, the TGI with OVCAR-5 ovarian is above 100 µM; in the assay on MCF7 breast, above 100 µM; with MDA-N, above 100 µM; with MALME-3M melanoma it was above 100 µM; with HL-60(TB) leukemia, 77.4 µM; with RXF 393 renal it was above 100 µM. This compound also had a TGI with MDA-MB-435 above 100 µM.
